We go through 4 molecules from PMC6891695, “Evaluation of Antifouling Potential and Ecotoxicity of Secondary Metabolites Derived from Red Algae of the Genus Laurencia” (Marine Drugs, 2019).

One data set concerns A. amphitrite cyprids. In words: Substrate exploration analysis: SIPC deposition by cyprids (anti-SIPC Western blot on wells). It is filed as in vivo, Amphibalanus amphitrite. To be noted: for effect on deposition of SIPC protein on the surface of the bioassay plates: concentrations at the EC50 values, p > 0.05; for effect on deposition of SIPC protein on the surface of the bioassay plates / effect on adjusted integrated density of anti-SIPC immunoreactive signals: 24 h; for effect on adjusted integrated density of anti-SIPC immunoreactive signals: indicated concentrations, unpaired two-tailed t-test with Welch's correction. As for the experimental part:
To test the substrate exploratory behaviour of A. amphitrite cyprids in the presence of selected metabolites, settlement bioassays were conducted by adding 10 cyprids into individual wells of a 24-well polystyrene sterile microplate (Orange Scientific, Braine l’Alleud, Belgium) containing 2 mL of ASW (25‰). These experiments were repeated twice with four replicates per experiment. Plates were covered and sealed with Parafilm® to avoid evaporation and incubated at 25 °C away from any light source for 24 h. Then, the 2 mL of ASW was aspirated from each well and all settled and non-settled cyprids were counted and removed. Wells were then blocked by incubation with 5% BSA in TBST (25 mM Tris-HCl, pH 7.5, 150 mM NaCl, 0.1% Tween 20) for 1 h at room temperature. Wells were then incubated for 1 h at room temperature with the mouse anti-SIPC monoclonal antibody at 1:100 dilution of the cloned cell line culture supernatant in TBST with 5% BSA, washed with TBST (3 × 5 min) and incubated with an HRP-conjugated anti-mouse antibody (1:1000, Cell Signaling Technology, Danvers, MA, USA) for 1 h at room temperature. Wells were then washed with TBST (3 × 5 min) and immunostaining was detected using the 20 × LumiGLO® chemiluminescence kit (Cell Signaling Technology, Danvers, MA, USA) in a Bio-Rad ChemiDoc XRS + Gel Photo Documentation System. To measure the relative intensity of immunoreactive spots on this format of Western blots, images were analyzed with ImageJ 1.52k (NIH, Bethesda, MD, USA), and the adjusted integrated density of the signals was calculated using the formula: Adjusted integrated density (IntDen) = IntDen of experimental region of interest (ROI)—(mean of background ROI × area of experimental ROI). Data were exported and statistically analyzed with GraphPad Prism v.6 using unpaired, two-tailed t-tests at p = 0.05, with Welch’s correction.
For orientation: In western blotting, separated proteins are transferred to a membrane and probed.

Another data set concerns A. salina nauplii. Description: Artemia salina toxicity assay. Format: in vivo. To be noted: 24 and 48 h. The protocol:
(§1) The short-term toxicity assay with A. salina nauplii was used to determine the toxicity of secondary metabolites. Hatching of A. salina nauplii was carried out in ASW (35‰) using 0.5 g of cysts incubated in 500 mL seawater at a temperature of 25 ± 1 °C and lateral illumination (1000 Lux). All cysts were kept in continuous suspension with aeration and 24 h later hatched larvae (instar I) were harvested. Toxicity assays were carried out in three independent experiments in 24-well plates with four replicates of each tested concentration. Ten nauplii per well were transferred with a Pasteur pipette into the 24-well plates and each well was filled with 2 mL of ASW and 50 μL of various concentrations of the tested compounds in methanol. Control treatments received 50 μL of methanol. Plates were incubated in the dark at 25 ± 1 °C for 48 h. Mortality was assessed by recording the number of individuals with no movement of their appendages within 10 seconds and is expressed as the percentage of the total number of assessed individuals for each concentration.
(§2) For EC50 or IC50 (the concentration that results in 50% stimulation or inhibition relative to the control) calculations in GraphPad Prism v.6, all data were fitted to the curve according to the following models for normalized response: Y = 100/(1 + 10^((X − LogIC50))) or Y = 100/(1 + 10^((LogEC50 − X))) depending on the trend of the curve.

The nature of data set [1]: Artemia salina toxicity assay. Format: in vivo. To be noted: Artemia salina, in vivo, read-out: EC50 Artemia salina toxicity (mortality). The protocol: as §1, §2

With `CC(C)[C@@H]1CC=C[C@H]2[C@H]3[C@](C)(CC[C@]12CBr)[C@@H](Br)CC[C@@]3(C)O` [Bromosphaerol, reference compound], the “effect on deposition of SIPC by the cyprids relative to control (ASW)” value in the data set with A. amphitrite cyprids (10 μM) was “did not affect deposition of SIPC”. In the data set with A. amphitrite cyprids, the “effect on deposition of SIPC protein on the surface of the bioassay plates” value was “no statistically significant effect” and the “effect on adjusted integrated density of anti-SIPC immunoreactive signals” value is given as “none of the two tested compounds (p > 0.05) affected”. The “toxicity against A. salina nauplii (in words)” value in the data set with A. salina nauplii is on record as “did not show any toxicity”.
In the case of `CC1=C2CC[C@@](C)(Cl)[C@@H](Br)C[C@]2(C)[C@@H](C)[C@@H](Br)[C@@H]1O` [Compound 9, perforenol], in the data set with A. amphitrite cyprids, the “effect on deposition of SIPC protein on the surface of the bioassay plates” value was “no statistically significant effect” and the “effect on adjusted integrated density of anti-SIPC immunoreactive signals” value is recorded as “none of the two tested compounds (p > 0.05) affected”. Further, in data set [1], the LC50 at 24 h was found to be 283 µM and the LC50 at 48 h came out at 189 µM.
As to `C=CC(C)(O)CC[C@@H]1C(=C)CC[C@@H](Br)[C@@]1(C)CCC1OC1(C)C` (stereo partly drawn) [Compound 18], in data set [1], the LC50 at 24 h was found to be 34.9 µM and the LC50 at 48 h was determined as 38.1 µM.
With `C=C(C1CCC(C)(O)C(Br)C1)C1C(Br)C2C(CCC2(C)O)C1(C)C` (stereo not drawn) [Compound 19, neorogioldiol], in data set [1], the LC50 at 24 h was found to be 31.5 µM and the LC50 at 48 h was 304 µM.
